Measurements reported in US7037673B2, “Dipeptide production method, L-amino acid amide hydrolase used therein, and production method of L-amino acid amide hydrolase” (Ajinomoto Co., Inc., priority 2001, dated 2006).
Residues, ends and D or L forms follow the SMILES beside them.

What was measured:
[1] = system: His-Tag L-alanine amide hydrolase; assay: Study of substrate specificity using His-Tag purified enzyme; type: biochemical, Corynebacterium glutamicum strain ATCC 13286; settings: pH 9.0, enzyme 0.0045 U/ml, 25° C., 3 hours; for peptide synthesized from L-alanine amide and test amino acid: 100 mM L-alanine amide, 150 mM test amino acid; for peptide produced from test amino acid amide and L-glutamine: 100 mM test amino acid amide, 150 mM L-glutamine
[2] = system: L-alanine amide hydrolase; assay: Production of L-alanyl-L-asparagine and L-alanyl-L-glutamine with purified enzyme; type: biochemical, Corynebacterium glutamicum strain ATCC 13286; settings: 50 μmol L-alanine amide hydrochloride + 150 μmol L-asparagine or L-glutamine, 0.08 unit enzyme, 1 ml, pH 9.0, 30° C., 10 hours
Text: Hereinafter, the present invention will be explained in more detail by way of examples. However, the present invention should not be considered to be limited to these examples.
The L-alanine amide hydrolase uniformly purified in Example 2 was allowed to act on L-alanine amide hydrochloride and L-asparagine or L-alanine amide hydrochloride and L-glutamine to produce L-alanyl-L-asparagine or L-alanyl-L-glutamine. In the case of obtaining L-alanyl-L-asparagine, 200 μmol of Tris-HCl buffer (pH 9.0), 50 μmol or L-alanine amide hydrochloride, 150 μmol of L-asparagine and enzyme liquid containing 0.08 unit of L-alanine amide hydrolase were added and mixed to a final volume of 1 ml. In the case of obtaining L-alanyl-L-glutamine, the reactants were mixed under the same conditions as in the case of L-alanyl-L-asparagine with the exception of using 150 μmol of L-glutamine instead of 150 μmol of L-asparagine. Control experiments were established for the case of using one of the substrates or setting the lot in which enzyme was not added. The reaction was carried out at a reaction temperature of 30° C. for 10 hours, and the results of quantifying the target product are shown in Table 3.

[3] = compared with L-glutamine; cited from earlier work
[4] = system: L-alanine amide hydrolase; assay: Measurement of activity of L-alanine amide hydrolase (L-alanyl-L-glutamine formation, HPLC); type: biochemical, Corynebacterium glutamicum strain ATCC 13286; settings: His-Tag purified enzyme
Protocol: Measurement of L-alanine amide enzyme activity was carried out by incubating a reaction mixture containing 50 mM L-alanine amide, 150 mM L-glutamine, 100 mM Tris-HCl buffer (pH 9.0), 10 mM EDTA and enzyme solution at 30° C. for 60 minutes followed by stopping the reaction by adding aqueous phosphoric acid (pH 1.5) equal to four volumes of the reaction mixture. The amount of L-alanyl-L-glutamine was determined by HPLC. For the unit of enzyme activity, enzyme activity that produces 1 μmol of L-alanyl-L-glutamine in 1 minute under these conditions was defined as 1 unit (U).
The conditions of HPLC used for analysis were as indicated below.
Mobile phase: (aqueous phosphoric acid solution (pH 2.1)), 2.5 mM sodium-1-octanesulfonate/methanol=10/1
Column temperature: 40° C.

SMILES	peptide synthesized from L-alanine amide and test amino acid [1]	other results
C[C@H](N)C(=O)N[C@@H](C)C(=O)O [L-alanyl-L-alanine] (H-Ala-Ala-OH)	10.11 mM	
C[C@H](N)C(=O)N[C@@H](CCCNC(=N)N)C(=O)O [L-alanyl-L-arginine] (H-Ala-Arg-OH)	27.69 mM	
C[C@H](N)C(=O)N[C@@H](CC(N)=O)C(=O)O [L-alanyl-L-asparagine] (H-Ala-Asn-OH)		Product concentration [2]: 8.4 mM
C[C@H](N)C(=O)N[C@@H](CCC(=O)O)C(=O)O [L-alanyl-L-glutamate] (H-Ala-Glu-OH)	1.20 mM	
C[C@H](N)C(=O)N[C@@H](CCC(N)=O)C(=O)O [L-alanyl-L-glutamine] (H-Ala-Gln-OH)		stability [3]: higher; water-solubility [3]: higher; production yield of Ala-Gln relative to L-alanine amide [4]: 7.2%; Product concentration [2]: 7.7 mM
C[C@H](N)C(=O)N[C@@H](Cc1c[nH]cn1)C(=O)O [L-alanyl-L-histidine] (H-Ala-His-OH)	12.52 mM	
CC[C@H](C)[C@H](NC(=O)[C@H](C)N)C(=O)O [L-alanyl-L-isoleucine] (H-Ala-Ile-OH)	14.11 mM	
CC(C)C[C@H](NC(=O)[C@H](C)N)C(=O)O [L-alanyl-L-leucine] (H-Ala-Leu-OH)	9.60 mM	
C[C@H](N)C(=O)N[C@@H](CCCCN)C(=O)O [L-alanyl-L-lysine] (H-Ala-Lys-OH)	18.83 mM	
CSCC[C@H](NC(=O)[C@H](C)N)C(=O)O [L-alanyl-L-methionine] (H-Ala-Met-OH)	14.49 mM	
C[C@H](N)C(=O)N[C@@H](Cc1ccccc1)C(=O)O [L-alanyl-L-phenylalanine]	13.42 mM	
C[C@H](N)C(=O)N1CCC[C@H]1C(=O)O [L-alanyl-L-proline] (H-Ala-Pro-OH)	0.81 mM	
C[C@H](N)C(=O)N[C@@H](CO)C(=O)O [L-alanyl-L-serine] (H-Ala-Ser-OH)	24.67 mM	
C[C@H](N)C(=O)N[C@H](C(=O)O)[C@@H](C)O [L-alanyl-L-threonine] (H-Ala-Thr-OH)	20.76 mM	
C[C@H](N)C(=O)N[C@@H](Cc1c[nH]c2ccccc12)C(=O)O [L-alanyl-L-tryptophan] (H-Ala-Trp-OH)	10.09 mM	
C[C@H](N)C(=O)N[C@@H](Cc1ccc(O)cc1)C(=O)O [L-alanyl-L-tyrosine] (H-Ala-Tyr-OH)	1.52 mM	
CC(C)[C@H](NC(=O)[C@H](C)N)C(=O)O [L-alanyl-L-valine] (H-Ala-Val-OH)	9.72 mM	
C[C@H](N)C(=O)NCC(=O)O [L-alanyl-glycine] (H-Ala-Gly-OH)	7.54 mM	
NCC(=O)N[C@@H](CCC(N)=O)C(=O)O [glycyl-L-glutamine] (H-Gly-Gln-OH)		peptide produced from test amino acid amide and L-glutamine [1]: 17.7 mM
NC(=O)CC[C@H](NC(=O)[C@@H](N)CC(=O)O)C(=O)O [α-L-aspartyl-glutamine] (H-Asp-Gln-OH)		peptide produced from test amino acid amide and L-glutamine [1]: 21.2 mM
